≈ marks a conversion by molar mass, not a printed value.
Conditions: buffer; pH 7.4; 200.0 µM
With C=CCN1C(=O)C2(OCCCO2)c2cc(C)ccc21 the solubility kinetic was 19.4 µg/mL (≈ 74.8 µM).
With C=CCNC(=O)COc1ccccc1C#N the solubility kinetic was greater than 32.4 µg/mL.
CCN(CC(=O)Nc1c(F)cccc1F)C(=O)c1ccc(C#N)cc1 gave a solubility kinetic greater than 51.5 µg/mL.
In the case of Nc1nccnc1C(=O)OCC(=O)NNC(=O)c1ccccc1, the solubility kinetic was greater than 47.3 µg/mL.
CC(=O)N1CCN(C2=NC(=O)/C(=C\c3cccs3)S2)CC1 gave a solubility kinetic of 38.7 µg/mL (≈ 120 µM).
CCc1ccccc1NC(=O)c1ccc(S(=O)(=O)N2CCCC2)cc1 showed a solubility kinetic of 12.2 µg/mL (≈ 34 µM).
In the case of COc1cc(CNCCc2ccc3c(c2)OCO3)ccc1O.Cl, the solubility kinetic was greater than 50.7 µg/mL.
For O=c1[nH]c2cc(NCCO)c([N+](=O)[O-])cc2[nH]1, the solubility kinetic was greater than 35.7 µg/mL.
Cc1ccc(C(=O)NCc2cccnc2)o1 gave a solubility kinetic greater than 32.4 µg/mL.
COc1ccccc1C/C(N)=N/OC(=O)c1ccc2c(c1)OCO2 gave a solubility kinetic greater than 49.2 µg/mL.
For Cn1c(C(=O)NCCc2ccccc2)cc(=O)n(C)c1=O, the solubility kinetic was greater than 43.1 µg/mL.
CN(C(=O)Nc1ccccc1)C1CCCCC1 showed a solubility kinetic of 8.6 µg/mL (≈ 37 µM).
In the case of O=C(COC(=O)c1ccc(Br)o1)NCc1ccc2c(c1)OCO2, the solubility kinetic was 29.9 µg/mL (≈ 78.2 µM).
O=c1[nH]c(=O)n(-c2ccc(Br)cc2)c(O)c1C=NCCN1CCCCC1 showed a solubility kinetic of 60.5 µg/mL (≈ 144 µM).
Work on O=C(Nc1ccc2c(c1)OCO2)Nc1ccc(F)cc1F yielded a solubility kinetic of 0.9 µg/mL (≈ 3.08 µM).
For Cc1ccc(C(C)C)cc1S(=O)(=O)Nc1cccnc1, the solubility kinetic was 3.5 µg/mL (≈ 12.1 µM).
Compound O=C(NCc1ccccc1Cl)c1cc(C(=O)C2CC2)c[nH]1 has a solubility kinetic of less than 0.3 µg/mL.
Work on O=C(O)c1cccc(Nc2ccncc2[N+](=O)[O-])c1 yielded a solubility kinetic greater than 38.9 µg/mL.
Compound Cc1ccc(-c2noc(CCCC(=O)NCC3CCCO3)n2)cc1 (configuration not stated) has a solubility kinetic of 42.2 µg/mL (≈ 128 µM).
CC(C)Cc1ccc(C(C)C(=O)Nc2ccccc2O)cc1 (configuration not stated) showed a solubility kinetic of 1.9 µg/mL (≈ 6.39 µM).
Work on O=C(NCc1ccccc1)NC(=O)c1ccccc1F yielded a solubility kinetic of 21.1 µg/mL (≈ 77.5 µM).
Work on COc1ccc(NS(=O)(=O)c2ccc(C(=O)N(C)Cc3ccc(C)o3)cc2)cc1 yielded a solubility kinetic of 61.1 µg/mL (≈ 147 µM).
Compound C=CCNC(=O)COC(=O)c1cccnc1Nc1ccccc1F has a solubility kinetic of 17.9 µg/mL (≈ 54.4 µM).
O=c1[nH]c([O-])c(Cc2ccc3c(c2)OCO3)c(=O)[nH]1.[NH4+] showed a solubility kinetic of 29.7 µg/mL.
Cc1csc(/N=C/N(C)C)c1C#N showed a solubility kinetic of 28 µg/mL (≈ 145 µM).
Work on Cc1ccc(N2C(=O)CC(Sc3cccs3)C2=O)cc1 (configuration not stated) yielded a solubility kinetic of 35 µg/mL (≈ 115 µM).
Work on COCCNC(=O)C(OC(=O)c1cccs1)c1ccc(F)cc1 (configuration not stated) yielded a solubility kinetic greater than 50.6 µg/mL.
Work on CC12CC3CC(C)(C1)CC(N)(C3)C2.Cl yielded a solubility kinetic of 29.4 µg/mL.
Work on Cc1cccc(NC(=O)CNC(=O)CSc2ncccn2)c1C yielded a solubility kinetic greater than 49.6 µg/mL.
Cc1ccc(O)c(NC(=O)Cc2ccc3ccccc3c2)c1 showed a solubility kinetic of 6.5 µg/mL (≈ 22.3 µM).
For Cc1ccc(OCC(=O)Nc2ccncc2)cc1, the solubility kinetic was 35.1 µg/mL (≈ 145 µM).
In the case of O=C(c1ccco1)N1CCN(c2ccc([N+](=O)[O-])cc2F)CC1, the solubility kinetic was 7 µg/mL (≈ 21.9 µM).
Work on CC(C)(C)OC(=O)NCCC(=O)N/N=C/c1ccc2ncccc2c1 yielded a solubility kinetic greater than 51.4 µg/mL.
For CCOC(=O)c1cccc(NC(=S)NC(=O)c2cccnc2)c1, the solubility kinetic was 8.1 µg/mL (≈ 24.6 µM).
COc1ccc(OC)c(N2C(=O)CCCC2=O)c1 gave a solubility kinetic of 24.7 µg/mL (≈ 99.1 µM).
CCOc1ccc2nc(NC(=O)C3(C)CC3(Br)Br)sc2c1 (configuration not stated) showed a solubility kinetic of 8.4 µg/mL (≈ 19.3 µM).
Work on CC(C)c1ccc(C(CC(=O)O)N2Cc3ccccc3C2=O)cc1 (configuration not stated) yielded a solubility kinetic greater than 48.5 µg/mL.
With CC(=O)c1c(C)n(CC(=O)NCc2ccco2)c2ccccc12 the solubility kinetic was 18.5 µg/mL (≈ 59.6 µM).
Compound CCC(C)NC(=O)c1cc2c(=O)n3ccccc3nc2s1 (configuration not stated) has a solubility kinetic of 33 µg/mL (≈ 109 µM).
C[C@@H]1NC(=O)N[C@@H]1CCCCCC(=O)O showed a solubility kinetic greater than 32.1 µg/mL.
In the case of C[N+](C)(C)C[C@H](O)CC(=O)O.[Cl-], the solubility kinetic was greater than 29.6 µg/mL.
With COCc1cc(C)nc(NC2CC(C)(C)NC(C)(C)C2)c1C#N the solubility kinetic was greater than 47.5 µg/mL.
In the case of COc1ccc(NS(=O)(=O)c2cccc(C(=O)Nc3ccccc3C(=O)O)c2)cc1, the solubility kinetic was greater than 64 µg/mL.
Compound CCOC(=O)Cc1cnc(NC(=O)CSc2nc(N)cc(=O)[nH]2)s1 has a solubility kinetic of 12.6 µg/mL (≈ 34.1 µM).
CC(CCc1ccccc1)NC(=O)CCC(=O)N1CCC(C(N)=O)CC1 (configuration not stated) gave a solubility kinetic of 48.7 µg/mL (≈ 135 µM).
Compound CCN(CC)S(=O)(=O)c1ccc2c(c1)NC(=O)C1CCCN21 (configuration not stated) has a solubility kinetic of 46.6 µg/mL (≈ 144 µM).
Cc1cc(N/C=C/C(=O)c2cccs2)ccc1F showed a solubility kinetic of 1.7 µg/mL (≈ 6.51 µM).
